Data on 2 molecules can be found in PMC4065032, “Biochemical Characterization of Quinolinic Acid Phosphoribosyltransferase from Mycobacterium tuberculosis H37Rv and Inhibition of Its Activity by Pyrazinamide” (PLoS ONE, 2014).

For series [1], the system named is hQAPRTase. The settings on record: cited from earlier work.
Series [2] concerns the molecule itself. In words: SEC.

Consider `O=C(O)c1cccnc1C(=O)O` [QA, 2,3-pyridinedicarboxylic acid], for which the Km in series [1] is 22 µM. Also, the kcat in series [1] (recalculated from Vmax) is 0.04 s⁻¹.

B1: Quinolinic acid phosphoribosyltransferase from Mycobacterium tuberculosis H37Rv (recombinant, C-terminal 6xHis) (enzyme)
chain: MGLSDWELAAARAAIARGLDEDLRYGPDVTTLATVPASATTTASLVTREAGVVAGLDVALLTLNEVLGTNGYRVLDRVEDGARVPPGEALMTLEAQTRGLLTAERTMLNLVGHLSGIATATAAWVDAVRGTKAKIRDTRKTLPGLRALQKYAVRTGGGVNHRLGLGDAALIKDNHVAAAGSVVDALRAVRNAAPDLPCEVEVDSLEQLDAVLPEKPELILLDNFAVWQTQTAVQRRDSRAPTVMLESSGGLSLQTAATYAETGVDYLAVGALTHSVRVLDIGLDM
notes: also called MtQAPRTase; QAPRTase; not shown: His6, C-terminal, kept
As for B1, in series [2], the “stoichiometry N” value was 2.

As a reminder, the Km is the concentration of substrate that gives half-maximal velocity. As usually defined, the kcat is the maximal rate divided by the concentration of active sites. What is called stoichiometry N is a count of units in the complex or per binding partner.
